Earlier results, collected in patent US20090232888A1, “SUSTAINED DELIVERY OF ANTIBIOTICS” (ORIENT PHARMA, priority 2008, published 2009).

Legend:
[1] = solution, 4° C., shelf-life based on 90% residual potency

CN[C@H](CC(C)C)C(=O)N[C@H]1C(=O)N[C@@H](CC(N)=O)C(=O)N[C@H]2C(=O)N[C@H]3C(=O)N[C@H](C(=O)N[C@H](C(=O)O)c4cc(O)cc(O)c4-c4cc3ccc4O)[C@H](O)c3ccc(c(Cl)c3)Oc3cc2cc(c3O[C@@H]2O[C@H](CO)[C@@H](O)[C@H](O)[C@H]2O[C@H]2C[C@](C)(N)[C@H](O)[C@H](C)O2)Oc2ccc(cc2Cl)[C@H]1O [vancomycin]
time vancomycin solutions were stable (shelf-life of 90% residual potency) [1]: at least 58 days
oral bioavailability: negligible
